Calls of active or inactive are those of the source.
What was measured:
Kallikrein-7 = Kallikrein-7 (Homo sapiens, UniProt P49862); experiment: Fluorescence Intensity-based biochemical primary high throughput dose response assay to identify activators of kallikrein-7 (K7) zymogen.
[1] = A2780 cell killing – plate reader, dry powder samples, cytotoxicity control, dose response (AID 743046); type: functional, cell-based
[2] = IGROV1 cell killing – plate reader, dry powder samples, PAX8 inhibitor project, dose response (AID 743043); type: functional, cell-based; settings: IGROV-1
[3] = OVCAR8 cell viability loss – plate reader, dry powder samples, PAX8 project, dose response (AID 743197); type: functional, cell-based; settings: OVCAR-8
[4] = OVCAR-3 cell viability loss – plate reader, dry powder samples, PAX8 inhibitor project, dose response (AID 743044); type: functional, cell-based
Paired box protein Pax-8 = Paired box protein Pax-8 (Homo sapiens, UniProt Q06710); experiment: PAX8 transcriptional activity inhibition in RMG-I – RMG-I cells, luciferase, cherry-pick, dose response (AID 687027); type: functional, cell-based;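 note: luciferase reporter driven by Pax8 target thyroperoxidase promoter measured by SteadyGlo luminescence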
[5] = antimalarial activity against Dd2 parasites – SYBR Green fluorescence, erythrocytes, dry powder, set 2, dose response (AID 1159574); type: functional, cell-based
[6] = molecular target: Muscarinic acetylcholine receptor M5 (Homo sapiens, UniProt P08912); experiment: potentiation of ACh response at human M5 – cell-based, concentration-response curve, dose response (AID 651878); type: functional
[7] = P. falciparum Dd2 growth inhibitors, dose response, SYBR Green, cherry-picked samples (AID 1159567); type: functional, cell-based
[8] = reduced cellular PGC1a acetyl-lysine signal – cell-based, cherry-picked samples, dose response (AID 720514); type: functional;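 note: potency may reflect raised or lowered acetylation signal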
[9] = toxicity to human hepatoma HepG2 cells – cell-based, cherry-picked samples, cytotoxicity control, dose response (AID 1159577); type: functional
Caspase-6 = Caspase-6 (Homo sapiens, UniProt P55212); experiment: inhibition of CASP6 peptide cleavage – biochemical, VEID-R110 fluorescence, cherry-pick, dose response (AID 720632)
[10] = NIH3T3 cell viability loss – ATP luminescence, mouse fibroblasts, counter-screen, dose response (AID 2010); type: functional, cell-based;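 note: cells exposed to compound for about 90 hours before reading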
[11] = Trypanosoma cruzi growth suppression in host cells – NIH3T3 host cells, beta-gal luminescence, confirmation (AID 2044); type: functional, cell-based;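 note: intracellular parasites grown in NIH/3T3 mouse fibroblasts as host cells; luminescent beta-galactosidase reporter signal from transgenic T. cruzi replicating inside host cells; inhibitors lower the luminescence signal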
[12] = molecular target: G-protein coupled receptor 183 (Homo sapiens, UniProt P32249); experiment: SAR confirmation of small molecule antagonists of the EBI2 receptor via a luminescent beta-arrestin assa.; type: functional
[13] = molecular target: T1, Probable nicotinate-nucleotide adenylyltransferase (Staphylococcus aureus (strain N315), UniProt P65502); type: functional, Staphylococcus aureus subsp. aureus N315;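 for IC50 Mean: confirmatory dose-response retesting of NadD inhibitor hits first found in an ultra-high-throughput screen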
[14] = molecular target: Glucose-6-phosphate 1-dehydrogenase (Homo sapiens, UniProt P11413); experiment: inhibition of Homo sapiens G6PD, dose series – biochemical, fluorescence, selectivity assay for P. falciparum G6PD inhibitor project, dose response (AID 504792); type: functional
Nonstructural protein 1 = Nonstructural protein 1 (Influenza A virus, UniProt Q194T2); type: functional, Influenza A virus (A/California/07/2009(H1N1))
[15] = viability loss in THP-1 monocytes – THP-1 cells, cytotoxicity control for Vif-APOBEC3G degradation inhibitor project, dose response (AID 1117359); type: functional; settings: THP-1
[16] = molecular target: T1, Probable nicotinate-nucleotide adenylyltransferase; type: functional, Staphylococcus aureus subsp. aureus N315; settings: read-out: IC50_Mean
[17] = DRD fibroblast viability loss – cell-based, non-viral oncogenic, luminescence, dose response (AID 1934); type: functional; settings: Homo sapiens
BJ [18] = experiment: cells; type: functional, cell-based; settings: Homo sapiens
BJ [19] = experiment: BJ-TERT-LT-ST fibroblast viability loss – cell-based, RAS-independent, luminescence, dose response (AID 1935); type: functional; settings: Homo sapiens;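 note: BJ fibroblasts immortalized with TERT plus LT and ST oncogenes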
BJ [20] = experiment: BJ-TERT fibroblast viability loss – cell-based, RAS-independent, luminescence, dose response (AID 1933); type: functional; settings: Homo sapiens
[21] = molecular target: Glutathione-S-transferase (Schistosoma japonicum, UniProt Q26513); experiment: GST-antibody interaction or FRET quenching – biochemical, TR-FRET, artefact control for Vif-APOBEC3G degradation inhibitor project, dose response (AID 1117362); type: functional
Protein Tat = Protein Tat (Human immunodeficiency virus type 1 group M subtype B (isolate HXB2)(HIV-1), UniProt P04608); type: functional;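 note: tat binding to TAR RNA read out by fluorescence polarization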
[22] = rise of 2N DNA cells, HeLa – IC50, dose response (AID 1117349); type: functional, cell-based
[23] = rise of 4N DNA cells, HeLa – IC50, dose response (AID 1117351); type: functional, cell-based

T1 sequence (P65502 whole entry): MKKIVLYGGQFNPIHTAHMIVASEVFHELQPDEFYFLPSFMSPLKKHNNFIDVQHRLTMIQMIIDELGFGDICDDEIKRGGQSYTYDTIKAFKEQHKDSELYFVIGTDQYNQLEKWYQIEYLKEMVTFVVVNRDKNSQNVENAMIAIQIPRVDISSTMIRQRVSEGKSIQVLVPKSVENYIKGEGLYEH
Paired box protein Pax-8, sequence (Q06710 whole entry): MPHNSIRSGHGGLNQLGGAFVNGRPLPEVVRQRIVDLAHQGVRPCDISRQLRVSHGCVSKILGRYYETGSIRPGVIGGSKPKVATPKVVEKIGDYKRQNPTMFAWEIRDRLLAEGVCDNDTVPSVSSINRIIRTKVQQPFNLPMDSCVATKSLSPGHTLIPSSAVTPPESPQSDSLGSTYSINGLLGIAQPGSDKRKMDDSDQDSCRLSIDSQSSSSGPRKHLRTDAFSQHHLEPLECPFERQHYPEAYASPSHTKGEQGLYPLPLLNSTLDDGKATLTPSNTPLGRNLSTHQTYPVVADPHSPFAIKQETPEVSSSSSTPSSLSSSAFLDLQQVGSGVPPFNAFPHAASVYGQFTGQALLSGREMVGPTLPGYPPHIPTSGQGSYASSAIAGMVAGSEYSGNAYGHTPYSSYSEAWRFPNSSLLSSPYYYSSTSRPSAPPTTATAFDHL
Nonstructural protein 1, sequence (Q194T2 whole entry): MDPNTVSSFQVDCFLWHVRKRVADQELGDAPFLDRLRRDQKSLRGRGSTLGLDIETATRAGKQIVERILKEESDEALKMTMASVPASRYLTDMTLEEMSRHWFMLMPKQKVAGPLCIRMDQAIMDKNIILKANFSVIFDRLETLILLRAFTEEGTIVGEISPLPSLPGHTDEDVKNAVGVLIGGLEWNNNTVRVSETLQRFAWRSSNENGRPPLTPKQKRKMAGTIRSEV
Glucose-6-phosphate 1-dehydrogenase, sequence (P11413 whole entry): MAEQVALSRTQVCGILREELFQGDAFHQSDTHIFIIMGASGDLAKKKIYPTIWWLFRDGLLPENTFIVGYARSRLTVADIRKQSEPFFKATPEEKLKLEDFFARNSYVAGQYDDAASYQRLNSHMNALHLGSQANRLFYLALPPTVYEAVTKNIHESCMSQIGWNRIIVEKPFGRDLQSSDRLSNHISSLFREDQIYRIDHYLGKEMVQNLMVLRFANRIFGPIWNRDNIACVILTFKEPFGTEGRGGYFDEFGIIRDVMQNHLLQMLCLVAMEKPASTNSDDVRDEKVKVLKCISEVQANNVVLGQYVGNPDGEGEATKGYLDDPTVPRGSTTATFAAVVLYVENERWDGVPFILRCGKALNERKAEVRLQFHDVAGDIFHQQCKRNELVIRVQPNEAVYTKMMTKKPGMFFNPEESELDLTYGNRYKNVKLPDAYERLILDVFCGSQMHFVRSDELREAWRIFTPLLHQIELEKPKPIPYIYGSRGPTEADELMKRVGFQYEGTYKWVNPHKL
Kallikrein-7, sequence (P49862 whole entry): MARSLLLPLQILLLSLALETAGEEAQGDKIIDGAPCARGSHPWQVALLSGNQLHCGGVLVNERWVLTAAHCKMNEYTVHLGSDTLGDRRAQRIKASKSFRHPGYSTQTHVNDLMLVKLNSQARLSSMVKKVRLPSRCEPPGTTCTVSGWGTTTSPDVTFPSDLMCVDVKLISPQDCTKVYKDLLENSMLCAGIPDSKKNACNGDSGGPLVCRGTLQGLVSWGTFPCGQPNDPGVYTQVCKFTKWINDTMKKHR
G-protein coupled receptor 183, sequence (P32249 whole entry): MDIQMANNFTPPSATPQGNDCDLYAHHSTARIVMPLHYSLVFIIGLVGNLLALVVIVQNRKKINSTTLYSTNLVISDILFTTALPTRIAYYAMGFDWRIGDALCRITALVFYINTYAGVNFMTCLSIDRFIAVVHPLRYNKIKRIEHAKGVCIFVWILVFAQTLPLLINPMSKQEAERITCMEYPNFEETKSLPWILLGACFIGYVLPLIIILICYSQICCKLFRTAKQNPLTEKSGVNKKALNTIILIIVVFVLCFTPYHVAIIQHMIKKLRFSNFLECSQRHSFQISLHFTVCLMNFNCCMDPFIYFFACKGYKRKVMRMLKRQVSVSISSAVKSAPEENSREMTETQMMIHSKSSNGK
Glutathione-S-transferase, sequence (Q26513 whole entry): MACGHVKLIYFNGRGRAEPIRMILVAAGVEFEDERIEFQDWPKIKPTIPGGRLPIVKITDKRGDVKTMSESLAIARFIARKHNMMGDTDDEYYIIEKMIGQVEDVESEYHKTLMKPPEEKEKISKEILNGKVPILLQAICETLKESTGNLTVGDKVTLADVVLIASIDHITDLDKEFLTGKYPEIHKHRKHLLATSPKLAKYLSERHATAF
Muscarinic acetylcholine receptor M5, sequence (P08912 whole entry): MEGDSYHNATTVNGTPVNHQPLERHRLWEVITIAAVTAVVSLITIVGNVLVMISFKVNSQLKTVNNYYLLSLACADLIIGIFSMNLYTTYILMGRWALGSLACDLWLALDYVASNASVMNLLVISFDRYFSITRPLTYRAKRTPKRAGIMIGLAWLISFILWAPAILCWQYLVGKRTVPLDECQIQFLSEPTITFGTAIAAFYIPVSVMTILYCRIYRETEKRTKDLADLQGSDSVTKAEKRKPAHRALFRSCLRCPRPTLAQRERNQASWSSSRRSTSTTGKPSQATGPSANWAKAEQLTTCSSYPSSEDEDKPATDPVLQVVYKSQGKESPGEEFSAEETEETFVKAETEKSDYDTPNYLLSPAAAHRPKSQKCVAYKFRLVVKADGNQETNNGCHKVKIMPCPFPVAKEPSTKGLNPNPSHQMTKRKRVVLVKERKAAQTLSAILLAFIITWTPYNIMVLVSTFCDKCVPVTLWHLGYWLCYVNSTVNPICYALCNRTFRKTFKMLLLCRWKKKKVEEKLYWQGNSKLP
Caspase-6, sequence (P55212 24-179 limits assumed): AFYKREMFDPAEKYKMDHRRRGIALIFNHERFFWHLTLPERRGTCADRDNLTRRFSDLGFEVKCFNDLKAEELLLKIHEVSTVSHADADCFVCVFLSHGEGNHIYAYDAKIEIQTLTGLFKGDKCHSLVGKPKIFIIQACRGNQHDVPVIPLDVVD
Caspase-6, sequence (P55212 194-293 limits assumed): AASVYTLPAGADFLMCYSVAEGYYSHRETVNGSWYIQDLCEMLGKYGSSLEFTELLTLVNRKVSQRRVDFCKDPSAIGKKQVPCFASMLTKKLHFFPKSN
Protein Tat, sequence (P04608 whole entry): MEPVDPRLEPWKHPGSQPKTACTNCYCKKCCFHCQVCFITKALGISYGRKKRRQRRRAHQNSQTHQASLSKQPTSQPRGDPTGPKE

In the case of `Cc1cccn2c(=O)c3cc(C#N)/c(=N/C(=O)c4ccccc4)n(Cc4ccco4)c3nc12`, the EC50 (Kallikrein-7) is reported as 7.95 µM (active).
In the case of `C[C@@H]1CCCCO[C@H](CN(C)Cc2ccc(C(F)(F)F)cc2)[C@H](C)CN([C@H](C)CO)C(=O)c2cc(NS(=O)(=O)c3ccc(Cl)cc3)ccc2O1`, the AC50 [1] is reported as 39 µM (active), the AC50 [2] is reported as 34.6 µM (active) and the AC50 [3] is reported as 15.9 µM (active). For the same compound, the AC50 [4] was 12.7 µM (active) and the AC50 (Paired box protein Pax-8) was 5.45 µM (active).
With `COc1ccc(NC(=O)N2CCCCN3[C@H](CO)[C@H](c4ccc(C#Cc5ccccc5)cc4)[C@H]3C2)cc1` the AC50 [2] was 46.7 µM (active), the AC50 (Paired box protein Pax-8) was 23.2 µM (active) and the AC50 [5] was 3.22 µM (active).
For `Cc1ccc(OCCN2C(=O)C(=O)c3cc(OC(F)(F)F)ccc32)cc1`, the EC50 [6] was 0.52 µM (active).
For `OC[C@H]1[C@H](c2ccc(C#CC3CCCC3)cc2)[C@@H]2CN(CCC(F)(F)F)CCCCN12`, the AC50 [7] was 0.848 µM (active), the AC50 [8] was 16.8 µM (active) and the AC50 [9] was 10.4 µM (active).
With `Cn1ccs/c1=N\C(=O)c1ccc([N+](=O)[O-])o1` the AC50 (Caspase-6) was 6.3 µM (active), the EC50 [10] was 24 µM (active) and the EC50 (cells) was 0.03 µM (active). For the same compound, the EC50 [11] was < 0.1 µM (active).
In the case of `CC(C)(C)c1ccc(CN2CCN(C(=O)/C=C/c3ccc(Br)cc3)CC2)cc1`, the IC50 [12] is reported as 0.00936 µM (active).
In the case of `CCN1/C(=C/C=C/C=C/C=C/c2sc3ccccc3[n+]2CC)Sc2ccccc21`, the IC50 [13] is reported as 19.8 µM (active), the IC50 [14] is reported as > 80 µM (inactive) and the IC50 (Nonstructural protein 1) is reported as 5.73 µM (active). The CC50 [15] was 1.26 µM (active), the IC50 [16] was 27 µM (active) and the EC50 [17] was 10.6 µM (active). The EC50 (BJ [18]) was 17.8 µM (active), the EC50 (BJ [19]) was 11.8 µM (inconclusive) and the EC50 (BJ [20]) was 3.21 µM (active). For the same compound, the IC50 [21] was 3.88 µM (active) and the IC50 (Protein Tat) was > 100 µM (active).
In the case of `Cc1cc(CC(C)CC(C)(C)C)n(O)c(=O)c1` (stereo unspecified) [PIROCTONE], the IC50 [22] is reported as > 10 µM (inactive) and the IC50 [23] is reported as > 10 µM (inactive).

— ChEMBL document CHEMBL1201862, “PubChem BioAssay data set” (2004)
